One data set deals with HepG2 cells. As to the kind of experiment: MTT cytotoxicity assay. The conditions noted are these: HepG2, 24 h, MTT; for IC20: concentration at which cells retain 80% viability, extrapolated from the dose–response curve.
Data set [1] relates to Mycobacterium tuberculosis H37Rv pMSp12::GFP. As to the kind of experiment: microbe, parasite or virus in culture. Type of data set: cell-based. The settings on record: Mtb H37Rv.
For data set [2] the test system is unchanged. As to the kind of experiment: microbe, parasite or virus in culture. Type of data set: cell-based. The settings on record: Mycobacterium tuberculosis, 168 h, Mtb H37Rv, protein-rich media, 7 days, read-out: MIC90 7H9/ADC/GLU/Tw 7 Days; for MIC90: H37RV.
The next data set is described as follows: MTT cytotoxicity assay. The settings on record: human; for IC20 at 24 h: IC20, HepG2, 24 h, MTT, concentration at which cells retain 80% viability, extrapolated from the dose–response curve.
The conditions of data set [3]: cited from earlier work.
The mark [4] stands for this setting: Mycobacterium tuberculosis, H37RV, 168 h, protein-poor media, 7 days, read-out: MIC90 7H9/CAS/GLU/Tx 7 Days.

Molecules are shown by their SMILES. ≈ marks a conversion by molar mass, not a printed value. Where two headings read alike, the source gives them in different places.

In the case of `O=C(NCCCCNc1ccnc2cc(Cl)ccc12)Nc1nc2ccc(Br)cc2s1` [Compound 6p], the IC20 in the data set on HepG2 cells was 2.13 µM. For the same compound, the MIC90 cell viability in the data set on HepG2 cells (viability at the compound's MIC90 in the CAS assay, extrapolated from the curve) is listed as 56%. Also, the MIC90 in data set [1] (protein-poor media, 7 days, read-out: MIC90 7H9/CAS/GLU/Tx 7 Days) is recorded as 7.812 µM (≈ 3.94 µg/mL).
For `O=C(NCCNc1ccnc2cc(Cl)ccc12)Nc1nc2ccc(Br)cc2s1` [Compound 6g, 1-(6-Bromobenzo[d]thiazol-2-yl)-3-(2-((7-chloroquinolin-4-yl)amino)ethyl)urea], the MIC in data set [2] was 14.9 µM (≈ 7.1 µg/mL). Further, in “MTT cytotoxicity assay”, the viability at 24 h was 48% and the IC20 at 24 h is 7.47 µM. For the same compound, the IC20 in the data set with HepG2 cells was 4.26 µM. In addition, in data set [1] (Mycobacterium tuberculosis, 168 h, protein-poor media, 7 days, read-out: MIC90 7H9/CAS/GLU/Tx 7 Days), the MIC is 8.89 µM (≈ 4.24 µg/mL). The MIC90 in data set [1] (Mycobacterium tuberculosis, H37RV, both media (CAS and ADC) or medium not given, read-out: MIC90) was 8.89 to 14.9 µM (≈ 4.24 to 7.1 µg/mL).
Compound `CC(CNc1ccnc2cc(Cl)ccc12)NC(=O)Nc1nc2ccc(Br)cc2s1` (centres unmarked) [Compound 6w, 1-(1-((7-Chloroquinolin-4-yl)amino)propan-2-yl)-3-(6-bromobenzo[d]thiazol-2-yl)urea] had a melting point of 246 to 248 °C. Further, the MIC90 in data set [2] stood at 14 µM (≈ 6.87 µg/mL). In the data set “MTT cytotoxicity assay”, the viability at 24 h is 19% and the IC20 at 24 h was 3.38 µM. Also, the MIC90 in data set [1] (setting [4]) was found to be 8.19 µM (≈ 4.02 µg/mL).
`CC(C)=CCC/C(C)=C/CNCCNC1C2CC3CC(C2)CC1C3` (centres unmarked) [SQ-109]: in data set [3], the “clog P” value is given as 6.82.
The compound `O=C(NCCCNc1ccnc2cc(Cl)ccc12)Nc1nc2ccc(C(F)(F)F)cc2s1` [Compound 6i, 1-(3-((7-Chloroquinolin-4-yl)amino)propyl)-3-(6-(trifluoromethyl)benzo[d]thiazol-2-yl)urea] showed a melting point of 198 to 200 °C. The MIC90 in data set [2] was found to be 12.8 µM (≈ 6.16 µg/mL). Besides, in the data set “MTT cytotoxicity assay”, the viability at 24 h is 87% and the IC20 at 24 h is 11.2 µM. The MIC90 in data set [1] (setting [4]) stood at 7.81 µM (≈ 3.75 µg/mL).
